Patent US5858751A, “Compositions and methods for producing sialyltransferases” (The Regents of the University of California, priority 1995, dated 1999)

Tests used:
ST3 = biological target: T1, ST3 (Homo sapiens, UniProt Q11206); assay: Acceptor specificity of soluble ST3 (AZ3) in COS-1 media; settings: for sialic acid incorporation by ST3 enzyme: data not shown
T1 sequence (Q11206 1-332 isoform Q11206-2): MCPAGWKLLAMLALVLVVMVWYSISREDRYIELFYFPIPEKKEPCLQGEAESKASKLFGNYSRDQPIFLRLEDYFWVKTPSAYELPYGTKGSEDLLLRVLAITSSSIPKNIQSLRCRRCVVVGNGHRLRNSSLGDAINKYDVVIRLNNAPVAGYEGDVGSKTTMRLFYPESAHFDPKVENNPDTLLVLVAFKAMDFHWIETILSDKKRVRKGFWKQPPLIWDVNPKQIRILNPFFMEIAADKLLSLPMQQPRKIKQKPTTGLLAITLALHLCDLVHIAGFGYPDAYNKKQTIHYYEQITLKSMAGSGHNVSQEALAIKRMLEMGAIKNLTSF

ST3O = biological target: T2, ST3O (Sus scrofa, UniProt Q02745); assay: Acceptor specificity of ST3O in COS-1 media
T2 sequence (Q02745 28-343 limits assumed): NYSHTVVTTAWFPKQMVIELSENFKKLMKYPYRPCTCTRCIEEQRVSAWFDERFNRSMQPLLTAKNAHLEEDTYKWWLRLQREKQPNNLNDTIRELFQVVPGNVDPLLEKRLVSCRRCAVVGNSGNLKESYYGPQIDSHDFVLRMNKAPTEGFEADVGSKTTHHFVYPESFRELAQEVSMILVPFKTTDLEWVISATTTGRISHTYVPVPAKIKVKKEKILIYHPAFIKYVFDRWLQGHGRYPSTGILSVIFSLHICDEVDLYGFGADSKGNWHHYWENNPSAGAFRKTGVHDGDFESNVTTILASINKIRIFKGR

ST3N = assay: Acceptor specificity of ST3N in COS-1 media
rat ST3N = assay: Acceptor specificity of soluble rat ST3N fusion protein; settings: acceptor 0.2 mM; relative to LNT
human ST3N = biological target: T3, human ST3N (Homo sapiens, UniProt Q11203); assay: Acceptor specificity of soluble human ST3N fusion protein; settings: acceptor 0.2 mM; relative to LNT
T3 sequence (Q11203 62-375): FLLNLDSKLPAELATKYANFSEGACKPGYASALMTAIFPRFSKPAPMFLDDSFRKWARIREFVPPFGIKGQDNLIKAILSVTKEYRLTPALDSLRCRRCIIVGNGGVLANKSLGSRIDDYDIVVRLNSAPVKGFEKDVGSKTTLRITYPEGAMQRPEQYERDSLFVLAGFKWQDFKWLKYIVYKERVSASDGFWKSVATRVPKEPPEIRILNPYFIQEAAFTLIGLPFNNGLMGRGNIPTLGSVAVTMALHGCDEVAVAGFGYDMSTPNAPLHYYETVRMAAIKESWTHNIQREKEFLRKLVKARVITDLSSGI

human ST3O = biological target: T4, human ST3O (Homo sapiens, UniProt Q11201); assay: Acceptor specificity of soluble human ST3O; type: biochemical; settings: acceptor 0.2 mM
T4 construct: lacked the first 44 amino acids of the open reading frame; made in house; host or cells: COS-1 cells (transient, culture medium)
T4 sequence (Q11201 45-340): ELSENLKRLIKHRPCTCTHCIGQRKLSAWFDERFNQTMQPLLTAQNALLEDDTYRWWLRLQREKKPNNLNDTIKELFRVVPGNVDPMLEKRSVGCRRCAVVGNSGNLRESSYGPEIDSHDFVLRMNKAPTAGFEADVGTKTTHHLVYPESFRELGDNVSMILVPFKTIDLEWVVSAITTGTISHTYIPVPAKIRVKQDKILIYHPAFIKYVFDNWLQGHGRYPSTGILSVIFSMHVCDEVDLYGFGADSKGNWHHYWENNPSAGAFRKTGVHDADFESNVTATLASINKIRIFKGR

porcine ST3O = biological target: T5, porcine ST3O (Sus scrofa, UniProt Q02745); assay: Acceptor specificity of recombinant porcine ST3O; type: biochemical; settings: acceptor 0.2 mM
T5 sequence (Q02745 28-343 limits assumed): T2 sequence (Q02745 28-343 limits assumed)

α2,3-N sialyltransferase = biological target: T6, α2,3-N sialyltransferase (Rattus norvegicus, UniProt Q02734); assay: Acceptor use by soluble α2,3-N sialyltransferase secreted from COS-1 cells (pBD122); type: biochemical; settings: concentrated COS-1 media
T6 construct: made in house; host or cells: COS-1 cells (transient, culture medium)
T6 sequence (Q02734 29-374 limits assumed): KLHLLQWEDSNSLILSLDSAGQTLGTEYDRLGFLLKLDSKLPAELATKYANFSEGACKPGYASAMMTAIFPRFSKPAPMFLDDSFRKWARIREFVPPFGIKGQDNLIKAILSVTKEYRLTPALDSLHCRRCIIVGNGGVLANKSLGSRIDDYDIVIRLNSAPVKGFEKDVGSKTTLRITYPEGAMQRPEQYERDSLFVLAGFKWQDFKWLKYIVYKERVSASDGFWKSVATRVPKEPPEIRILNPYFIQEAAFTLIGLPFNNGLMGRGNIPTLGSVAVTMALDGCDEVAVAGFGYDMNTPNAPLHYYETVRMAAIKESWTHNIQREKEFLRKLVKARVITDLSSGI

Compound	Relative rate (%) ST3O (ST3O; acceptor 0.2 mM) [%]	Relative rate (%) ST3O (ST3O; acceptor 2.0 mM) [%]	Relative rate (%) ST3N (ST3N; acceptor 0.2 mM) [%]	Relative rate (%) ST3 (ST3; acceptor 0.2 mM) [%]	Relative rate (%) ST3 (ST3; acceptor 2.0 mM) [%]	also measured
.varies.1 -acid glycoprotein: intact glycoprotein examined as acceptor						sialic acid incorporation by ST3 enzyme (ST3): not any significant amount of sialic acid incorporated
CC(=O)N[C@H]1[C@H](O[C@H]2[C@@H](O)[C@@H](CO)O[C@@H](O[C@H]3[C@H](O)[C@@H](O)C(O)O[C@@H]3CO)[C@@H]2O)O[C@H](CO)[C@@H](O)[C@@H]1O[C@@H]1O[C@H](CO)[C@H](O)[C@H](O)[C@H]1O (stereo partly drawn) [LNT, lacto-N-tetrose]	0.5	3	100	0	2.3	Relative rate (%) ST3N (ST3N; acceptor 2.0 mM): 100%; Relative activity (%) Rat (rat ST3N): 100%; Relative Activity (%) Human (human ST3N): 100%
GalNAcβ1,4Galβ1,4Glcβ1-Cer [Asialo-GM2]	0.5		0	2		
Galβ1,4Glcβ1-Cer [LacCer]	0.1		0	4		
Galβ1,3GalNAcβ1,4(NeuAcα2-3)Galβ1,4Glcβ1-Cer [GM1]	47		0	27		Relative Activity (%) Human (human ST3O): 41%; Relative Activity (%) Porcine (porcine ST3O): 44%
Asialofetuin: glycoprotein acceptor (Galβ1,3GalNAc-Thr/Ser and Galβ1,4GlcNAc-R)	26			92		
CC(=O)N[C@H]1[C@H](O[C@H]2[C@@H](O)[C@@H](CO)O[C@@H](O[C@H]3[C@H](O)[C@@H](O)C(O)O[C@@H]3CO)[C@@H]2O)O[C@H](CO)[C@@H](O[C@@H]2O[C@H](CO)[C@H](O)[C@H](O)[C@H]2O)[C@@H]1O[C@@H]1O[C@@H](C)[C@@H](O)[C@@H](O)[C@@H]1O (stereo partly drawn) [Galβ1,4(Fucα1,3)GlcNAcβ1,3Galβ1,4Glc]	0	0	0	0.1	1	Relative rate (%) ST3N (ST3N; acceptor 2.0 mM): 0%
Asialo-α1 -acid glycoprotein: glycoprotein acceptor (Galβ1,4GlcNAc-R)	0			51		use as acceptor by secreted enzyme (α2,3-N sialyltransferase): capable of sialylating
CC(=O)N[C@H]1[C@H](O[C@H]2[C@@H](O)[C@@H](CO)O[C@@H](O[C@H]3[C@H](O)[C@@H](O)C(O)O[C@@H]3CO)[C@@H]2O)O[C@H](CO)[C@@H](O[C@@H]2O[C@H](CO)[C@H](O)[C@H](O)[C@H]2O)[C@@H]1O (stereo partly drawn) [LNnT, Galβ1,4GlcNAcβ1,3Galβ1,4Glc]	0	0.5	4	24	49	Relative rate (%) ST3N (ST3N; acceptor 2.0 mM): 18%; Relative activity (%) Rat (rat ST3N): 4%; Relative Activity (%) Human (human ST3N): 5%
CC(=O)N[C@H]1C(O)O[C@H](CO)[C@@H](O)[C@@H]1O[C@@H]1O[C@H](CO)[C@H](O)[C@H](O)[C@H]1O (stereo partly drawn) [Galβ1,3GlcNAc]	2			0		
NeuAcα2,3Galβ1,4Glcβ1-Cer [GM3]	0.1		0	0		
GalNAcβ1,4(NeuAcα2-3)Galβ1,4Glcβ1-Cer [GM2]	0.3		0			
CC(=O)N[C@H]1C(O)O[C@H](CO)[C@H](O)[C@@H]1O[C@@H]1O[C@H](CO)[C@H](O)[C@H](O)[C@H]1O (stereo partly drawn) [Galβ1,3GalNAc]	100	100		100	100	Relative Activity (%) Human (human ST3O): 100%; Relative Activity (%) Porcine (porcine ST3O): 100%
Galβ1,3GalNAcβ1,4Galβ1,4Glcβ,1-Cer [Asialo-GM1]	88		8	64		Relative Activity (%) Human (human ST3O): 84%; Relative Activity (%) Porcine (porcine ST3O): 85%
CC(=O)N[C@H]1C(O)O[C@H](CO)[C@@H](O[C@@H]2O[C@H](CO)[C@H](O)[C@H](O)[C@H]2O)[C@@H]1O (stereo partly drawn) [Galβ1,4GlcNAc]	0	0.9		4	23	Relative Activity (%) Human (human ST3O): 0%; Relative Activity (%) Porcine (porcine ST3O): 0%
intact fetuin: glycoprotein examined as acceptor						sialic acid incorporation by ST3 enzyme (ST3): not any significant amount of sialic acid incorporated
CC(=O)N[C@H]1[C@H](O[C@H]2[C@@H](O)[C@@H](CO)O[C@@H](O[C@H]3[C@H](O)[C@@H](O)C(O)O[C@@H]3CO)[C@@H]2O)O[C@H](CO)[C@@H](O[C@@H]2O[C@@H](C)[C@@H](O)[C@@H](O)[C@@H]2O)[C@@H]1O[C@@H]1O[C@H](CO)[C@H](O)[C@H](O)[C@H]1O (stereo partly drawn) [Galβ1,3(Fucα1,4)GlcNAcβ1,3Galβ1,4Glc]	0	0	0		0	Relative rate (%) ST3N (ST3N; acceptor 2.0 mM): 0%
